Reference: patent US4428952A, “Substituted pyrrolo[2,1-b]quinazolines and pyrido[2,1-b]quinazolines useful for the treatment of or the prevention of gastrointestinal ulcers” (Farmitalia Carlo Erba S.p.A., priority 1981, dated 1984)

How the values were obtained:
restraint ulcers = assay: inhibition of restraint ulcers in rats (Bonfils et al.); assay type: in vivo, rat (Sprague-Dawley male); details: po; rat, p.o. one hour before immobilization; approximate values; lesions counted 4 hours after immobilization; read-out: Anti-ulcerogenic activity ED50 p.o.
Method: The anti-ulcerogenic activity of the compounds of the invention is shown, e.g., by the fact that they are active in the test of the inhibition of restraint ulcers in rats, according to the method of Bonfils et al., (Therapie, 1960, 5, 1096; Jap. J. Pharmac. 1945, 43, 5).
The tested compound was administered per os (p.o.) one hour before the immobilization. Six Sprague-Dawley male rats (100-120 g) fasted 24 hours were used for the experiment: a square flexible small-mesh wire netting was used for the immobilization and 4 hours after the immobilization the rats were sacrificed, their stomachs were removed and the lesions counted under a dissecting microscope.

[1] = test system: syndrome induced by oxotremorine; assay: antagonism against syndrome induced by oxotremorine in mice (Leszkovszky and Tardos); anticholinergic activity; assay type: in vivo, mouse; details: 100 mg/kg, oral administration
Excerpt: Considering that many anti-ulcer agents display, as does atropine, a remarkable but undesired anti-cholinergic activity, the compounds of the invention have been assessed for their antagonism against syndrome induced by oxotremorine in mice, according to the method described by Leszkovszky G. P. and Tardos L. (Europ. J.Pharmac. 1971, 15, 310).

[2] = acute toxicity (LD50), single administration of increasing doses; details: in vivo, po, mouse, per os, measured on the seventh day of treatment, read-out: approximate acute toxicity (LD50)
Excerpt: In view of their high therapeutic index the compounds of the invention can be safely used in medicine. For example, the approximate acute toxicity (LD50) of the compounds 3-benzylidene-1,2,3,9-tetrahydro-9-oxo-pyrrolo[2,1-b]quinazoline-7-carboxylic acid; 3-benzylidene-1,2,3,9-tetrahydro-9-oxo-pyrrolo[2,1-b]quinazoline-6-carboxylic acid; 6-benzylidene-6,7,8,9-tetrahydro-11-oxo-11H-pyrido[2,1-b]quinazoline-2-carboxylic acid; 6-benzylidene-6,7,8,9-tetrahydro-11-oxo-11H-pyrido[2,1-b]quinazoline-3-carboxylic acid in mouse, determined with single administration of increasing doses and measured on the seventh day of treatment is per os higher than 800 mg/kg.

gastric secretion = assay: inhibition of gastric secretion in rats (H. Shay et al.); assay type: in vivo; details: Rattus norvegicus, intraduodenal administration, approximate value, read-out: antisecretory activity ED50

Structure (SMILES)	ED50 (restraint ulcers) [mg/kg]	antagonism against syndrome induced by oxotremorine [1]	LD50 at 168 h [2] [mg/kg]	ED50 (gastric secretion) [mg/kg]
O=C(O)c1ccc2c(=O)n3c(nc2c1)C(=Cc1ccccc1)CC3 [3-benzylidene-1,2,3,9-tetrahydro-9-oxo-pyrrolo[2,1-b]quinazoline-6-carboxylic acid]	~10	inactive	> 800	
O=C(O)c1ccc2c(=O)n3c(nc2c1)C(=Cc1ccccc1)CCC3 [6-benzylidene-6,7,8,9-tetrahydro-11-oxo-11H-pyrido/2,1-b/quinazoline-3-carboxylic acid]	~8	inactive	> 800	~15
O=C(O)c1ccc2nc3n(c(=O)c2c1)CCC3=Cc1ccccc1 [3-benzylidene-1,2,3,9-tetrahydro-9-oxo-pyrrolo[2,1-b]quinazoline-7-carboxylic acid]	~8	inactive	> 800	
O=C(O)c1ccc2nc3n(c(=O)c2c1)CCCC3=Cc1ccccc1 [6-benzylidene-6,7,8,9-tetrahydro-11-oxo-11H-pyrido[2,1-b]quinazoline-2-carboxylic acid]	~9	inactive	> 800	
